Measured values from patent US5840936A, “Aminosterol compounds useful as inhibitors of the sodium/proton exchanger (NHE)” (priority 1995, dated 1998).
Entries after “also recorded” stand apart in the source; their conditions may differ.

Key:
ELC = ELC MTT; assay type: cell-based; details: Table II; read-out: ELC MTT, Minimum Effective Concentration
human melanoma = test: Time course of effect on melanoma growth; apoptosis; assay type: cell-based
[1] = test system: chick embryo vitelline capillaries; test: Chick embryo vitelline capillary regression assay; assay type: in vivo; set-up: key to Vitelline capillary regression: +: Vascular reactivity; 0: No vascular reactivity; +/-: Equivocal reactivity; details: for Effect on chick embryo vessels: 3- to 5-day chick embryo
Description: Using the chick embryo vitelline capillaries assay, compounds were tested for their ability to induce capillary regression. Each compound was applied in 0.1 ml of 15% Ficol 400 and PBS onto the embryo, and vascular regression was assessed after 60 minutes.
The 3-day chick embryo consists of an embryonic disc from which numerous vessels emerge and return, forming a "FIG. 8"-shaped structure--the embryo in the center with vascular loops extending outward over both poles. […] Following a lag period of around 15 minutes, the constriction of continuity between capillary and secondary vessels, generally on the "venous" side, was observed. Continued pulsatile blood flow progressed, resulting in a "swelling" of the blind tube, followed by a pinching off of the remaining connection and formation of an enclosed vascular sac resembling a "blood island." This process progressed until only the largest vessels remained intact.

[2] = test system: Xenopus tadpoles, stage 59-60; test: Xenopus tadpole assay
HM = HM MTT assay; assay type: cell-based; details: Table II; read-out: HM MTT assay, Minimum Effective Concentration
human NHE1 = test: NHE1 inhibition, internal pH in PS120 fibroblasts expressing human NHE1; assay type: cell-based; details: 5 μg/ml squalamine, acid-preloaded
Description: (§1) PS120 fibroblasts transfected with rabbit or human NHEl were grown as described above.

rabbit NHE1 = test: NHE1 inhibition, internal pH in PS120 fibroblasts expressing rabbit NHE1; assay type: cell-based; details: 5 μg/ml squalamine, acid-preloaded
Description: as §1

[3] = test system: human coronary artery smooth muscle; test: Growth of human coronary artery smooth muscle in vitro; assay type: cell-based; details: in vitro
Text: Aminosterols of the invention may also have utility in inhibiting the growth factor mediated proliferation of smooth muscle within the artery. Following coronary angioplasty, reocclusion commonly occurs, secondary to reparative proliferation of the vascular smooth muscle within the wall of the surgically manipulated blood vessel. This process generally takes place over the course of 7-10 days. To evaluate whether an agent could prevent the growth factor mediated proliferation of smooth muscle within the artery, compound 1436 was evaluated in vitro for its effect on the proliferation of human coronary artery smooth muscle. Results for compound 1436 are shown in FIG. 13, and those for squalamine are shown in FIG. 14, with FIG. 15 being a composite logarithmic plot.

[4] = test system: human epithelial cell line MCF 10A; test: Growth inhibition of epithelial cells in vitro; assay type: cell-based; details: 10 μg/ml
rabbit NHE3 = rabbit NHE3 (Oryctolagus cuniculus, UniProt P26432); test: NHE3 inhibition, internal pH (BCECF-AM) in transfected PS120 fibroblasts
rabbit NHE3, sequence (P26432 30-832): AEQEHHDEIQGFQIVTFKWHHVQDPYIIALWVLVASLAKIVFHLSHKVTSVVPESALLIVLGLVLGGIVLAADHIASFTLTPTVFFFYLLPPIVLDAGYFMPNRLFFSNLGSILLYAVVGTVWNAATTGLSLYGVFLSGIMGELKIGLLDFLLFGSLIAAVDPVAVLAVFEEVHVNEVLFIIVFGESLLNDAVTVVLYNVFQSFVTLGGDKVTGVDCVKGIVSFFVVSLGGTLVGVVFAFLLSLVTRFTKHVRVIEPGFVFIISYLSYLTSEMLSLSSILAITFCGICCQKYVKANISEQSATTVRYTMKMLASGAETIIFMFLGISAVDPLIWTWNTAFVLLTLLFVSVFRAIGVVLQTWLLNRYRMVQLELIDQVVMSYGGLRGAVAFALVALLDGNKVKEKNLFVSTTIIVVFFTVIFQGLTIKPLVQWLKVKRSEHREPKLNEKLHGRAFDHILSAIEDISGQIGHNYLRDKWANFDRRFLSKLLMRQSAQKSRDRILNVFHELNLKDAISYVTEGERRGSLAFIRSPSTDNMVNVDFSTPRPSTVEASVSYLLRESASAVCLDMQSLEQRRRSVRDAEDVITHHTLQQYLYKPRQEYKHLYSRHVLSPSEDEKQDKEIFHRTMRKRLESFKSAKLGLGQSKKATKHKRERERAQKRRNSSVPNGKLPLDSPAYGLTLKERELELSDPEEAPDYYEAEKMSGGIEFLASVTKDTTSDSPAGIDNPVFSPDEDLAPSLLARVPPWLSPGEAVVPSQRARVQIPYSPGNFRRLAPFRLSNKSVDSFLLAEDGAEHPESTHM
Description: Internal pH was measured either following acid loading or in the absence of an acid-loading challenge, with the results shown in FIGS. 1A and 1B.
Specifically, PS120 fibroblasts transfected with rabbit NHE3 were grown in supplemented Dulbecco's-modified Eagle's medium as described by Levine et al., J. Biol. Chem. 268, 1993, 25527-25535. […] For cells not acid-preloaded, the actual internal pH value was monitored as a function of time following addition of squalamine, with the results depicted in FIG. 1B.
PS120 fibroblasts transfected with rabbit NHE3 were grown and acid preloaded by exposure to 40 mM NH4 Cl as described above in conjunction with FIGS. 1A and 1B. Internal cellular pH changes expressed as the rate of pH recovery as a function of restored extracellular sodium ion concentration following exposure to 10 μg/ml of the compound were assayed with the fluorescent dye BCECF-AM as described above.

[5] = test system: human foreskin fibroblasts; test: Growth inhibition of fibroblasts in vitro; assay type: cell-based; details: 10 μg/ml
[6] = test system: human umbilical venous endothelial cells; test: LPS-induced neutrophil adherence to human umbilical venous endothelial cells; details: 10 μg, 1.0 μg, or 0.1 μg; LPS or TNF-α
Description: In these experiments, approximately 2×10^5 human umbilical venous cells (passage 2-6) were plated per well. The cells were grown in serum-free media overnight. For induction, either TNF-α (40 ng/ml) was added to endothelial cells for 6 hours prior to adding neutrophils or LPS (100 ng/ml) was added for 4-6 hours. […] After activation of the endothelial cells, approximately 50×10^6 neutrophils were added per well. The plates were gently rocked for 30 minutes at room temperature, followed by removal of the media and washing in serum-free media three times and then photographing of each well. […] A monoclonal Ab to ICAM-1 was a positive control.

[7] = test system: human microvascular cells; test: Inhibition of endothelial cell cord formation in vitro; assay type: cell-based; details: concentrations inhibiting cord formation
Text: Endothelial cells have the capacity in vitro to form tubular aggregates resembling capillaries in various early stages of formation. This conversion occurs under relatively specific conditions, in which essential growth factors along with an effective substratum are provided. It has been shown that both the interaction of growth factors with the endothelial cell and its attachment to a substratum activate the NHE. The activation of this exchanger is believed to be required for subsequent morphologic transformation of the endothelial cell into a multicellular tubular structure.
To assess the effect of compounds on the cord-like structures formed by human microvascular cells when plated in the presence of VEGF (Vascular Endothelial Growth Factor) and basic fibroblast growth factor on a collagen matrix, a standard cord formation assay was used.

[8] = Fasting blood glucose in mice; assay type: in vivo, male CD-1 mice; details: total dose 20 mg/kg i.v. (2 × 10 mg/kg), 30 min. after 2d dose
Description: To study the effect of steroid administrator or the NHE responsible for secretion of insulin, several of the aminosterols from shark liver were administered to fasting mice. Male CD-1 mice were assigned to one of four treatment groups. Whole blood glucose was tested using glucometer (Lifescan Glucometer II and One Touch test strips). Statistical analysis was via one-way analysis of variance (ANOVA) followed by subsequent Bonferonni's t-test.

[9] = test system: chick chorioallantoic membrane capillaries; test: Chorioallantoic membrane (CAM) model, inhibition of capillary growth; assay type: in vivo; details: for Percentage positive, Assay 1 / Percentage positive, Assay 2 / Percentage positive, Mean: 3-day embryo
Text: The growing capillaries within the chorioallantoic membrane model (CAM model) have been used as a system in which to evaluate the effect of agents on their potential to inhibit new vessel growth. Neovascularization occurs most aggressively over the first week of embryonic development. Thereafter capillary growth is characterized by principally "elongation" rather than "de novo" formation.
In the standard assay, agents are applied locally to a region of the embryo over which neovascularization will occur. Agents are assessed by their ability to inhibit this process, as evaluated by visual examination about 7 days after application. […] The assay utilized is described in detail in Auerbach et al., Pharm. Ther. 51, 1991, 1-11.

human melanoma 1205Lu = test: Suppression of human melanoma in RAG-1 mice; assay type: in vivo
Text: As apparent from FIG. 5, melanoma 120SLu develops aggressively in RAG-1 mice after implantation.

[10] = test system: bovine pulmonary endothelial cells; test: Growth inhibition of endothelial cells in vitro; assay type: cell-based; details: 1 μg/ml
[11] = test system: Xenopus tadpoles, stage 59-60; details: 10 μg/mL
B16 melanoma = test: Suppression of B16 melanoma growth in C57B mice; assay type: in vivo, mouse
Description: The growth of B16 melanoma in C57B mice is dependent upon neovascularization.
Using the growth of B16 melanoma cells in C57B mice, a recognized model for the evaluation of inhibitors of angiogenesis on the growth of cancers, the effects of subcutaneous, intraperitoneal and oral administration of squalamine were evaluated.
Animals were implanted with B16 melanoma followed by treatment with compound 1436 or 1256 administered in a combined schedule or separately. […] Thus, a combination of these two compounds achieves a theraputic benefit in tumors dependent on neovascularization that may prevent metastatic spread.

Mouse IV PK study = details: in vivo
Description: To assess clearance, a mouse IV PK study was performed for compound 319 and squalamine. The compound was administered i.v. and blood samples were taken every 10 minutes. The concentration of the administered steroid was determined by HPLC analysis.

[12] = 20 μg applied, some vascular irritation noted
[13] = 40 μg applied, some vascular irritation noted

## CC(C)CCC[C@@H](C)[C@H]1CC[C@H]2[C@@H]3CC[C@H]4C[C@@H](NCCCNCCCCNCCCN)CC[C@]4(C)[C@H]3CC[C@]12C [Compound 353]
ELC
  minimal effective concentration: 1.9 µg/mL
Human melanoma
  Apoptosis: apoptotic cell death has been induced
  Time course of effect on growth of melanoma: most pronounced over 48 hours, with less of an effect noted within the first 12 hours of incubation
[1]; 1 μg applied
  Vitelline capillary regression: +/-
[1]
  Effect on chick embryo vessels: no effect on the chick embryo capillary bed
[2]; in vivo
  Pharmacologic similarity in tadpole assay: effects like those produced by compound 1436
HM
  minimal effective concentration: 3 µg/mL

## CC(C)[C@@H](CC[C@@H](C)[C@H]1CC[C@H]2[C@@H]3[C@H](O)C[C@H]4C[C@@H](NCCCNCCCCN)CC[C@]4(C)[C@H]3CC[C@]12C)OS(=O)(=O)O [Compound 1256]
ELC
  minimal effective concentration: 13.2 µg/mL
Human NHE1
  Inhibition of human NHE1: no inhibitory activity; also recorded: lack of inhibition of human NHE1
Rabbit NHE1
  Inhibition of rabbit NHE1: no inhibitory activity; also recorded: lack of inhibition of rabbit sodium/proton exchanger isoform 1 (NHE1)
[3]
  Suppression of growth of human coronary artery smooth muscle: suppress in vitro the growth of human coronary artery smooth muscle
[4]
  Growth inhibition of epithelial cells: no effect
[1]; 0.001 μg applied
  Vitelline capillary regression: 0
[1]; 0.01 μg applied
  Vitelline capillary regression: +
[1]; 0.1 μg applied
  Vitelline capillary regression: +
[1]; 1 μg applied
  Vitelline capillary regression: +
[1]; 10 μg applied
  Vitelline capillary regression: +
[1]; 0.1 ml in 15% Ficol in PBS, listed as Squalamine
  Hemorrhage / hemolysis in chick embryo: No hemorrhage was seen; also recorded: absence of hemolysis
[1]
  Effect on chick embryo vessels: disrupt vitelline capillaries in 3- to 5-day chick embryos
[1]; Table II
  Chick embryo diss. assay, Minimum Effective Concentration: 0.01 µg
[2]; 10 μg/ml
  Tadpole assay, observed effects: Vascular occlusion in fine capillaries of tail; also recorded: No effect on vascular flow through hands or feet
  Tadpole time to death: ≤ 2 h
[2]; 10 μg/ml, listed as squalamine
  Tadpole assay, observed effects: blood flow through the capillaries of the tail shut down; also recorded: unaltered blood flow through the fine capillaries of the hands and feet; also recorded: common vascular occlusive effect
Rabbit NHE3; 5 μg/ml squalamine, acid-preloaded and not acid-preloaded cells
  Inhibition of NHE3: inhibited NHE3 with respect to proton concentration at both Km and Vmax levels
Rabbit NHE3; 5 μg/ml, not acid-preloaded
  Effect on resting pH: causes the cell to drop to a lower pH in its presence before activation of the pump occurs
Rabbit NHE3; NHE3 vs NHE1, listed as squalamine
  NHE isoform specificity: inhibits NHE3, but not NHE1; also recorded: specificity for NHE3 over NHE1
[5]
  Growth inhibition of fibroblasts: no effect
[6]
  Inhibition of neutrophil adherence: no inhibition
[7]
  Effect on cell viability or proliferation: does not appear to profoundly affect cell viability or proliferation
[8]
  Fasting Blood Glucose Mean ± SEM: 65 ± 7.3 mg/dL
[9]; 3-day CAM, 0.65 μg
  Inhibition of CAM vessel neovascularization: inhibition of CAM vessel neovascularization
[9]; 0.65 μg applied
  Percentage positive, Assay 1: 28%
[9]; 1.25 μg applied
  Percentage positive, Assay 1: 18%
  Percentage positive, Assay 2: 18%
  Percentage positive, Mean: 18%
[9]; 2.5 μg applied
  Percentage positive, Assay 1: 35%
  Percentage positive, Assay 2: 18%
  Percentage positive, Mean: 27%
[9]; 5.0 μg applied
  Percentage positive, Assay 1: 91%
  Percentage positive, Assay 2: 57%
  Percentage positive, Mean: 74%
[9]; 20 μg applied
  Percentage positive, Mean: 55%
[9]; [12]
  Percentage positive, Assay 1: 52%
  Percentage positive, Assay 2: 58%
[9]; 40 μg applied
  Percentage positive, Mean: 32%
[9]; [13]
  Percentage positive, Assay 1: 50%
  Percentage positive, Assay 2: 13%
[9]; 13-day embryo, 5.0 μg applied
  Percentage positive: 0/26
[9]; 13-day old chick, ten times that amount
  Inhibition of CAM vessel neovascularization: no inhibitory effect
Human melanoma 1205Lu
  Tumor growth after cessation of treatment: tumor growth continued at a rate similar to untreated controls
Human melanoma 1205Lu; 10, 20, 40 mg/kg/d, listed as Squalamine
  Suppression of growth of melanoma 1205Lu: suppress the growth of melanoma 1205Lu in RAG-1 mice in a dose-dependent fashion; also recorded: clear suppression of tumor growth in a dose-dependent fashion
[10]
  Growth inhibition of bovine pulmonary endothelial cells (BPE): inhibited the growth of bovine pulmonary artery endothelial cells (BPE)
[11]
  Tadpole E (epithelial): -
  Tadpole GI (gastrointestinal): -
  Tadpole M (melanocytes): -
  Tadpole Mus (muscle): -
  Tadpole V (vascular): +
B16 melanoma; squalamine
  Body weight and hematologic parameters: no significant depression
B16 melanoma; squalamine 5 mg/kg/day
  Impact on tumor volume: no significant impact on tumor volume
B16 melanoma; squalamine 15 mg/kg/day, compound 1436 alone in a tolerable schedule
  Tumor growth effect of single agent compared with combination: Neither administration of squalamine at 15 mg/kg/day nor compound 1436 alone in a tolerable schedule could achieve this effect
B16 melanoma; squalamine, subcutaneous, intraperitoneal or oral
  Suppression of tumor volume: dose-dependent suppression of tumor volume

## C[C@H](CCC(=O)O)[C@H]1CC[C@H]2[C@@H]3CC[C@H]4C[C@@H](NCCCNCCCCN)CC[C@]4(C)[C@H]3CC[C@]12C [Compound 319]
[1]; 0.001 μg applied
  Vitelline capillary regression: +/-
[1]; 0.01 μg applied
  Vitelline capillary regression: +
[1]; 0.1 μg applied
  Vitelline capillary regression: +
[1]; 1 μg applied
  Vitelline capillary regression: +
[1]; 10 μg applied
  Vitelline capillary regression: +
[2]; 10 μg/ml
  Tadpole assay, observed effects: common vascular occlusive effect
Rabbit NHE3
  Potency as an NHE inhibitor compared with squalamine: superior to squalamine
Mouse IV PK study
  half-life: about 14 minute
B16 melanoma; compound 319, subcutaneous, intraperitoneal (FIG. 6 legend)
  Control of B16 in C57B mice: control of B16 in C57B mice to an extent almost comparable to squalamine
